Source: patent publication US20070238727A1, “5-Substituted 1-Phenyl-1,5-Dihydro-Pyrido[3,2-B]Indol-2-Ones and Analogs as Anti-Virals” (Tibotec BVBA, priority 2004, published 2007)

What follows are compounds tested on HIV (assay: Cellular assay: anti-viral activity in HIV-infected MT4 cells (MTT)). Conditions: Human immunodeficiency virus 1, 120 h, five days incubation, negative logarithm of EC50.
Assay type: cell-based
Method: Compounds of the present invention were examined for anti-viral activity in a cellular assay, which was performed according to the following procedure.
HIV- or mock-infected MT4 cells were incubated for five days in the presence of various concentrations of the inhibitor. At the end of the incubation period, the replicating virus in the control cultures has killed all HIV-infected cells in the absence of any inhibitor. Cell viability was determined by measuring the concentration of MTT, a yellow, water soluble tetrazolium dye that is converted to a purple, water insoluble formazan in the mitochondria of living cells only. Upon solubilization of the resulting formazan crystals with isopropanol, the absorbance of the solution was monitored at 540 nm. The values correlate directly to the number of living cells remaining in the culture at the completion of the five day incubation. The inhibitory activity of the compound was monitored on the virus-infected cells and was expressed as EC50 and EC90. These values represent the amount of the compound required to protect 50% and 90%, respectively, of the cells from the cytopathogenic effect of the virus. The toxicity of the compound was measured on the mock-infected cells and was expressed as CC50, which represents the concentration of compound required to inhibit the growth of the cells by 50%. The selectivity index (SI) (ratio CC50/EC50) is an indication of the selectivity of the anti-HIV activity of the inhibitor. Wherever results are reported as e.g. pEC50 or pCC50 values, the result is expressed as the negative logarithm of the result expressed as EC50 or CC50 respectively.

SMILES | EC50 [µM]
N#Cc1cc2c(c3ccccc3n2CC(O)CN2CCCC2)n(-c2ccc([N+](=O)[O-])cc2)c1=O (stereo not drawn) [Compound 2, 5-(2-Hydroxy-3-pyrrolidin-1-yl-propyl)-1-(4-nitro-phenyl)-2-oxo-2,5-dihydro-1H-pyrido[3,2-b]indole-3-carbonitrile] | 0.251
COCCOCCn1c2ccccc2c2c1cc(C#N)c(=O)n2-c1ccc([N+](=O)[O-])cc1 [Compound 4, 5-[2-(2-Methoxy-ethoxy)-ethyl]-1-(4-nitro-phenyl)-2-oxo-2,5-dihydro-1H-pyrido-[3,2-b]indole-3-carbonitrile] | 0.316
N#Cc1cc2c(c3ccccc3n2CC(O)CN2CCSCC2)n(-c2ccc([N+](=O)[O-])cc2)c1=O (stereo not drawn) [Compound 9] | 0.794
COCCOCCOCCn1c2ccccc2c2c1cc(C#N)c(=O)n2-c1ccc([N+](=O)[O-])cc1 [Compound 11] | 1.58

Other lines, results leading:

EC50 [µM] | SMILES
15.8 | COC(Cn1c2ccccc2c2c1cc(C#N)c(=O)n2-c1ccc([N+](=O)[O-])cc1)C[N+](C)(C)C (stereo not drawn) [Compound 13]
0.501 | CC(=O)OC(CN1CCCC1)Cn1c2ccccc2c2c1cc(C#N)c(=O)n2-c1ccc([N+](=O)[O-])cc1 (stereo not drawn) [Compound 21]
15.8 | N#Cc1cc2c(c3ccccc3n2CCCONC(=N)N)n(-c2ccc([N+](=O)[O-])cc2)c1=O [Compound 25]
1 | CC1CCCN(CCn2c3ccccc3c3c2cc(C#N)c(=O)n3-c2ccc([N+](=O)[O-])cc2)C1 (stereo not drawn) [Compound 31]
2.51 | CC(=O)N1CCN(CCCn2c3ccccc3c3c2cc(C#N)c(=O)n3-c2ccc([N+](=O)[O-])cc2)CC1 [Compound 35]
1 | CC1CN(CCn2c3ccccc3c3c2cc(C#N)c(=O)n3-c2ccc([N+](=O)[O-])cc2)CC(C)O1 (stereo not drawn) [Compound 40]
0.794 | N#Cc1cc2oc3ccccc3c2n(-c2ccc([N+](=O)[O-])cc2)c1=O [Compound 42, 1-(4-Nitro-phenyl)-2-oxo-1,2-dihydro-benzo[4,5]furo[3,2-b]pyridine-3-carbonitrile]

These compounds were tested against T1, HIV reverse transcriptase (Human immunodeficiency virus type 1 group M subtype B, UniProt P04585) (assay: In vitro inhibition of HIV reverse transcriptase (kit TRK 1022, 3H-TTP)). Conditions: HIV RT enzyme, 4 hours at 37° C., no conversion to active metabolite needed.
T1 construct: 5 μl HIV RT enzyme solution at a final enzyme activity of 15 mU per 50 μl reaction; purchased Amersham Life Sciences TRK 1022
Assay type: biochemical
Method: The assay was run using kit TRK 1022 (Amersham Life Sciences) according to the manufacturer's instructions with slight modifications. Test compounds were diluted in steps of 1/4 in 100% DMSO and subsequently transferred to Medium A (1/50 dilution; medium A: RPMI 1640+10% FetalClone 1+Gentamycin 20 mg/L). 25 μl of compound (in 2% DMSO in Medium A) or 25 μl of 2% DMSO in medium A was added to wells. To each well was added 25.5 μl master mix (master mix: 5 μl primer/template beads, 10 μl assay buffer, 0.5 μl tracer (3H-TTP), 5 μl HIV RT enzyme solution at a final enzyme activity of 15 mU per 50 μl reaction, 5 μl medium A). The plates were sealed, marked as radioactive and incubated during 4 hours at 37° C. Subsequently, 100 μl stop solution was added to each well (except R1). The radioactivity was counted in a TopCount.

SMILES | inhibition of HIV reverse transcriptase in vitro
N#Cc1cc2c(c3ccccc3n2CC(O)CN2CCCC2)n(-c2ccc([N+](=O)[O-])cc2)c1=O (stereo not drawn) [Compound 2, 5-(2-Hydroxy-3-pyrrolidin-1-yl-propyl)-1-(4-nitro-phenyl)-2-oxo-2,5-dihydro-1H-pyrido[3,2-b]indole-3-carbonitrile] | inhibit IV reverse transcriptase in vitro
